Source: ChEMBL document CHEMBL1141900, “Synthesis and antibacterial activity of C2-fluoro, C6-carbamate ketolides, and their C9-oximes” (2005)

What was measured:
Mus musculus [1] = assay: Effective dose required to inhibit Staphylococcus aureus in mouse was determined after peroral administration of the compound; (8.1- 14); format: functional; details: po
Mus musculus [2] = assay: Effective dose required to inhibit Staphylococcus aureus in mouse was determined after sub cutaneous administration (0.5-1.4); format: functional

Question: What does the source list for CC[C@H]1OC(=O)C(C)C(=O)[C@H](C)[C@@H](O[C@@H]2O[C@H](C)C[C@H](N(C)C)[C@H]2O)[C@](C)(OC(=O)NC/C=C/c2ccc(-c3ncccn3)cc2)C[C@@H](C)C(=O)[C@H](C)[C@H]2NC(=O)O[C@@]21C (some centres not stated)?
Answer: ED50 (Mus musculus [1]): 10 mg/kg; ED50 (Mus musculus [2]): 1 mg/kg
